The values below come from US8093249B2, “Pyrazolo[1,5-A]pyrimidine-carbonyl-piperazine derivatives” (Convergence Pharmaceuticals Limited, priority 2008, dated 2012).

The target in one test is T1, hCaV2.2 (Homo sapiens, UniProt Q00975).
T1 construct: expressed in transfected cells; plasmids pCIN5-hCaV2.2, pCIH-hCaV β3, pCIP-α2δ1
T1 sequence (Q00975 whole entry): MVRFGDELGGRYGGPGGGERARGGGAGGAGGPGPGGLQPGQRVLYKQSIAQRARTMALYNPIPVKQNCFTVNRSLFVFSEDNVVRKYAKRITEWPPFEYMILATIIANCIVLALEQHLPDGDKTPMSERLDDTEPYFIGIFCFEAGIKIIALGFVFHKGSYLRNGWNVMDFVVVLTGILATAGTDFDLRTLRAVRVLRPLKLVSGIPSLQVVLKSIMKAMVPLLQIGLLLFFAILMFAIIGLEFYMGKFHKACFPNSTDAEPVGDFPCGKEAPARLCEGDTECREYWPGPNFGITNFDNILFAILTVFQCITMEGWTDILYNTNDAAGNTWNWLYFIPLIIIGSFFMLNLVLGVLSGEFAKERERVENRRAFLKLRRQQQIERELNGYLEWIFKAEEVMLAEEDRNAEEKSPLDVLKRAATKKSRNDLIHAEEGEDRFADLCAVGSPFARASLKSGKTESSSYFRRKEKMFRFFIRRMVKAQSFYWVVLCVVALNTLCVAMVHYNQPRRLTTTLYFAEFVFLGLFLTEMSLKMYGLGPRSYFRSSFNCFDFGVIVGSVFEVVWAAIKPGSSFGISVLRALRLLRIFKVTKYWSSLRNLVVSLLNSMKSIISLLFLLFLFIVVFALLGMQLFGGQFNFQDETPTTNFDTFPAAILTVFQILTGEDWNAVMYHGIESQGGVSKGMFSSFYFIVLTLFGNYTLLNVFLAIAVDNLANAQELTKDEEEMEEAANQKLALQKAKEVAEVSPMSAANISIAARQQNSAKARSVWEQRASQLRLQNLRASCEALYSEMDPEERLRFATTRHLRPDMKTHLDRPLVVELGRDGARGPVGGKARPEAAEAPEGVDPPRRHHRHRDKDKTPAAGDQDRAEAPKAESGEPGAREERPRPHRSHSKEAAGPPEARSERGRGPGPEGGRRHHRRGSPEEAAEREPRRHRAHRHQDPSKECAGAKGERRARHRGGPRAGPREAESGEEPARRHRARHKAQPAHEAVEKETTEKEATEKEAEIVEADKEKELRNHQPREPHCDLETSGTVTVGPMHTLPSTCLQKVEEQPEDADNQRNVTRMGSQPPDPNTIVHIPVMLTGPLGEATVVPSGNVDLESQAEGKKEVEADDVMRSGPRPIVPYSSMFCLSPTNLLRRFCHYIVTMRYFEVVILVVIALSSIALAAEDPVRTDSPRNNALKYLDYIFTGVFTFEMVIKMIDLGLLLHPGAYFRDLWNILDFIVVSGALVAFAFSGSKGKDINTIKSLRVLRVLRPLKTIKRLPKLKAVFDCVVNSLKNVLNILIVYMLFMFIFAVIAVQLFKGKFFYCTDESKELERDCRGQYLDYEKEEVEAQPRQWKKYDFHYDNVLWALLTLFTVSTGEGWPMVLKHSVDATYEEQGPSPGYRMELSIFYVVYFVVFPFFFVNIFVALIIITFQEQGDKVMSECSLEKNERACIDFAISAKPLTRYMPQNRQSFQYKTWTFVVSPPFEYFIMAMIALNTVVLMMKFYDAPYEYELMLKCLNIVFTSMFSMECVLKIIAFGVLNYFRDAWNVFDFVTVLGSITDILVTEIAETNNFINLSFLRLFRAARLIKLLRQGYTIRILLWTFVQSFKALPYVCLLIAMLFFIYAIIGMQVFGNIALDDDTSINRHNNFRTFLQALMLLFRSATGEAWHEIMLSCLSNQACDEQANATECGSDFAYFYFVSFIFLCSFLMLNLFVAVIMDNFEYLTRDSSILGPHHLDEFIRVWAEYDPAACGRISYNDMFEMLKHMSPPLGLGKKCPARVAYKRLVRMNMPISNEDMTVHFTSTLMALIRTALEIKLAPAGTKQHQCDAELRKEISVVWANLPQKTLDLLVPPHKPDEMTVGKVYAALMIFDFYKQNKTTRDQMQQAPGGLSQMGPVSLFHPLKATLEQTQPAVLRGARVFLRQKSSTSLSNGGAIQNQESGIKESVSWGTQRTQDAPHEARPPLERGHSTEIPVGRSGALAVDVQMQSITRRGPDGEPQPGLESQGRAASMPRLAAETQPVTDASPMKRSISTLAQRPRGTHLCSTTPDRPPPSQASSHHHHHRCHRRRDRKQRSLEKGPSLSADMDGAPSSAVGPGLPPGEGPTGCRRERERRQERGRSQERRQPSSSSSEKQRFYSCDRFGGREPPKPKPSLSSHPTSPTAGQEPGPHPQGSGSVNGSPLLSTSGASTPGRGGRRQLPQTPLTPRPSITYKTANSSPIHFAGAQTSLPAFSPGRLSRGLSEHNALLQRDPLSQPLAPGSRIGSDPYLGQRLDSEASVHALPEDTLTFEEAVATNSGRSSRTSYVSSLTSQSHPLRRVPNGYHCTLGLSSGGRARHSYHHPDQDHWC
T1 sequence (P54284 whole entry partner): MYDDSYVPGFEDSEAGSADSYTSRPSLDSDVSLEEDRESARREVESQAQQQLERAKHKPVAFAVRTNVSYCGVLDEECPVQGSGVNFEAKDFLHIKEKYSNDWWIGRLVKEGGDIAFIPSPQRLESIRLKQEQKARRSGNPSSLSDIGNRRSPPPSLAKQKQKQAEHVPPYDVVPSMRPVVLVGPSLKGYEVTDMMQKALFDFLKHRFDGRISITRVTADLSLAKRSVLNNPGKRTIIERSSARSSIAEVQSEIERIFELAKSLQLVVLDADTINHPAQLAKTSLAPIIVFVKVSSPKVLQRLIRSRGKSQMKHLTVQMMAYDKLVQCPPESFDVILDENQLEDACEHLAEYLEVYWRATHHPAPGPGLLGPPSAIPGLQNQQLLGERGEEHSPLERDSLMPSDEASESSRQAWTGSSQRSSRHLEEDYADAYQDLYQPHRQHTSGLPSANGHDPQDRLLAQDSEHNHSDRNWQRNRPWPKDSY
T1 sequence (P54289 25-946 partner limits assumed): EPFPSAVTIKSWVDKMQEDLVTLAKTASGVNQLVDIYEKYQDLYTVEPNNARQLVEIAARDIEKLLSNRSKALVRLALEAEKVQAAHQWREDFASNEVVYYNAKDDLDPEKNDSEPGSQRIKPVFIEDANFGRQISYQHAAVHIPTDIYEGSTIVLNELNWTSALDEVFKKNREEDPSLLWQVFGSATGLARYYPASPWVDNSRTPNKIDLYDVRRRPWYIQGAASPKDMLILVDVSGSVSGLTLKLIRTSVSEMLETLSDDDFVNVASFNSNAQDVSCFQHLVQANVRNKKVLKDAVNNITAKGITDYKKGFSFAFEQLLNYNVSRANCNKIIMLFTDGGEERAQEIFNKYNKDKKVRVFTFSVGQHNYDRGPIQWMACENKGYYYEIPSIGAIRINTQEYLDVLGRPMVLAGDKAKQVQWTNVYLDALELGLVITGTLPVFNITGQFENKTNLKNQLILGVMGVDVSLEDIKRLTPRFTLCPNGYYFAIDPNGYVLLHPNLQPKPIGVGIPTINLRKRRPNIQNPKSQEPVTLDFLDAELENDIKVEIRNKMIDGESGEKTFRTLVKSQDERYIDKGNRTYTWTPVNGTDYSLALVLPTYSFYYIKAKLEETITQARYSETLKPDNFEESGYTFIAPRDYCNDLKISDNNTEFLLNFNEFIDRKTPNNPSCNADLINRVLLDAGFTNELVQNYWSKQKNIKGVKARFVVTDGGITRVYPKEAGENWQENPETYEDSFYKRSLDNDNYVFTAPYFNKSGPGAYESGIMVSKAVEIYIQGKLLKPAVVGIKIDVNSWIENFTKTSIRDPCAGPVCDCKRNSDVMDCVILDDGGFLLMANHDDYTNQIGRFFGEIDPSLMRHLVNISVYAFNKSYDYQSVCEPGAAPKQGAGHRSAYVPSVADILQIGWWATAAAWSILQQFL
T1 sequence (P54289 947-1103 partner limits assumed): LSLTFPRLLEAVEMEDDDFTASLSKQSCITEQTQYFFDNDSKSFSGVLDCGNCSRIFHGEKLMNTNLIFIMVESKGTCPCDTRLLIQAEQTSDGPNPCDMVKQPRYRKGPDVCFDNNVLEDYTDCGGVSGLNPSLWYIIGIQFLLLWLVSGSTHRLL
As to the kind of experiment: hCaV2.2 assay (IonWorks planar array electrophysiology, HEK293 stable cell line). The following applies: inhibition of current elicited by the 1st depolarizing pulse by 50%, HEK293 cells expressing human CaV2.2 α/β3/α2δ1; read-out: mean pIC50 value (tonic pIC50) (converted). The test is classed as cell-based. From the text:
Compounds of the invention may be tested for in vitro biological activity in the hCaV2.2 assay in accordance with the following studies:
Stable cell lines expressing the human CaV2.2 α (α1B) subunit, along with the human β3 and α2δ1 auxillary subunits were created following sequential transfection and selection of human embryonic kidney (HEK293) cells. […] Initially HEK293 cells were transfected with two plasmid vectors for expression of the hCaV2.2 α subunit (pCIN5-hCaV2.2 which carries a neomycin resistance marker) and the hCaV β3 subunit (pCIH-hCaV β3 which carries a hygromycin resistance marker). […] These clonal cell lines were assessed for Cav2.2 α/β3-mediated current expression using the IonWorks planar array electrophysiology technology (described below). […] Expression of all three subunits within this cell line was continuously maintained by the inclusion of G418 (0.4 mg ml^−1), hygromycin (0.1 mg ml^−1) and puromycin (0.62 μg ml^−1). Cells were maintained at 37° C. in a humidified environment containing 5% CO2 in air.
Cells were grown to 30-60% confluence in T175 flasks and maintained at 30° C. for 24 hours prior to recording. […] Lifted cells were suspended in 10 ml of extracellular buffer. Cell suspension was then placed into a 15 ml tube and centrifuged for 2 minutes at 700 rpm. After centrifugation, the supernatant was removed and the cell pellet was resuspended in 4.5 ml of extracellular solution.
Currents were recorded at room temperature (21-23° C.) using the IonWorks planar array electrophysiology technology (Molecular Devices Corp.). Stimulation protocols and data acquisition were carried out using a microcomputer (Dell Pentium 4). In order to determine planar electrode hole resistances (Rp), a 10 mV, 160 ms potential difference was applied across each hole. These measurements were performed before cell addition. After cell addition a seal test was performed prior to antibiotic (amphotericin) circulation to achieve intracellular access. Leak subtraction was conducted in all experiments by applying a 160 ms hyperpolarizing (10 mV) prepulse 200 ms before the test pulses to measure leak conductance. Test pulses stepping from the holding potential (VH) of −90 mV to +10 mV were applied for 20 ms and repeated 10 times at a frequency of 10 Hz. In all experiments, the test pulse protocol was performed in the absence (pre-read) and presence (post-read) of a compound. Pre- and post-reads were separated by a compound addition followed by a 3-3.5 min incubation.
The intracellular solution contained the following (in mM): K-gluconate 120, KCl 20 mM, MgCl2 5, EGTA 5, HEPES 10, adjusted to pH 7.3. Amphotericin was prepared as 30 mg/ml stock solution and diluted to a final working concentration of 0.2 mg ml^−1 in intracellular buffer solution. The extracellular solution contained the following (in mM): Na-gluconate 120, NaCl 20, MgCl2 1, HEPES 10, BaCl2 5, adjusted to pH 7.4.
Finally the compounds were diluted 1:100 in external solution resulting in a final DMSO concentration of 1%.
Paired comparisons between pre-compound and post-compound additions were used to determine the inhibitory effect of each compound. […] In addition the use-dependent inhibitory properties of the compounds were determined by assessing the effect of compounds on the 10th versus 1st depolarizing pulse. The ratio of the 10th over 1st pulse was determined in the absence and presence of drug and the % use-dependent inhibition calculated.
Compounds were tested in the form as described in the Examples. […] Variations in pUD30 and pIC50 values may arise between tests.
In general terms: Patch clamp records ionic current or voltage across a cell membrane.
As to `Cc1cnc2c(C(=O)N3CCN(S(=O)(=O)c4ccc(C(F)(F)F)cc4)CC3)cnn2c1` [Example 6, 6-Methyl-3-[(4-{[4-(trifluoromethyl)phenyl]sulfonyl}-1-piperazinyl)carbonyl]pyrazolo[1,5-a]pyrimidine], the IC50 was no less than 31.6 µM.
Same read-out and setting: the same measure for `Cc1ccc(C(F)(F)F)cc1S(=O)(=O)N1CCN(C(=O)c2cnn3cccnc23)[C@@H](C)C1` [Example 18, 3-[((2S)-2-methyl-4-{[2-methyl-5-(trifluoromethyl)phenyl]sulfonyl}-1-piperazinyl)carbonyl]pyrazolo[1,5-a] pyrimidine]: no less than 31.6 µM; for `C[C@H]1CN(C(=O)c2cnn3cccnc23)CCN1S(=O)(=O)c1ccc(C(F)(F)F)cc1` [Example 4, 3-[((3S)-3-Methyl-4-{[4-(trifluoromethyl)phenyl]sulfonyl}-1-piperazinyl)carbonyl]pyrazolo[1,5-a]pyrimidine]: no less than 31.6 µM.
Still for that read-out and setting: the same measure for `C[C@@H]1CN(S(=O)(=O)c2ccc(C(F)(F)F)cc2)CCN1C(=O)c1cnn2cccnc12` [Example 7, 3-[((2R)-2-Methyl-4-{[4-(trifluoromethyl)phenyl]sulfonyl}-1-piperazinyl)carbonyl]pyrazolo[1,5-a]pyrimidine]: no less than 31.6 µM; for `Cc1cc(C#N)ccc1S(=O)(=O)N1CCN(C(=O)c2c(C)nn3cccnc23)[C@@H](C)C1` [Example 24, 3-methyl-4-({(3S)-3-methyl-4-[(2-methylpyrazolo[1,5-a]pyrimidin-3-yl)carbonyl]-1-piperazinyl}sulfonyl)benzonitrile]: no less than 31.6 µM.
As for `Cc1nn2cccnc2c1C(=O)N1CCN(S(=O)(=O)c2ccc(C(F)(F)F)cc2)C[C@@H]1C` [Example 20, 2-methyl-3-[((2S)-2-methyl-4-{[4-(trifluoromethyl)phenyl]sulfonyl}-1-piperazinyl)carbonyl]pyrazolo[1,5-a] pyrimidine], the IC50 was no less than 10 µM.
Still for that read-out and setting: the same measure for `C[C@@H]1CN(C(=O)c2cnn3cccnc23)CCN1S(=O)(=O)c1ccc(OC(F)(F)F)cc1` [Example 21, 3-{[(3R)-3-methyl-4-({4-[(trifluoromethyl)oxy]phenyl}sulfonyl)-1-piperazinyl]carbonyl}pyrazolo[1,5-a] pyrimidine]: no less than 31.6 µM; for `Cc1cnc2c(C(=O)N3CCN(S(=O)(=O)c4ccc(C#N)cc4C)C[C@@H]3C)cnn2c1` [Example 23, 3-methyl-4-({(3S)-3-methyl-4-[(6-methylpyrazolo[1,5-a]pyrimidin-3-yl)carbonyl]-1-piperazinyl}sulfonyl)benzonitrile]: no less than 31.6 µM; for `O=C(c1cnn2cccnc12)N1CCN(S(=O)(=O)c2ccc(C(F)(F)F)cc2)CC1` [Example 1, 3-[(4-{[4-(Trifluoromethyl)phenyl]sulfonyl}-1-piperazinyl)carbonyl]pyrazolo[1,5-a]pyrimidine]: no less than 31.6 µM.
Still for that read-out and setting: with `Cc1cc(C#N)ccc1S(=O)(=O)N1CCN(C(=O)c2cnn3cccnc23)[C@@H](C)C1` [Example 5, 3-Methyl-4-{[(3S)-3-methyl-4-(pyrazolo[1,5-a]pyrimidin-3-ylcarbonyl)-1-piperazinyl]sulfonyl}benzonitrile] the figure was no less than 31.6 µM.
The same measure, in the same setting: with `C[C@H]1CN(S(=O)(=O)c2ccc(C(F)(F)F)cc2)CCN1C(=O)c1cnn2cccnc12` [Example 2, 3-[((2S)-2-Methyl-4-{[4-(trifluoromethyl)phenyl]sulfonyl}-1-piperazinyl)carbonyl]pyrazolo[1,5-a]pyrimidine] the figure was no less than 10 µM.
On to `Cc1cc(C#N)ccc1S(=O)(=O)N1CCN(C(=O)c2cnn3cc(Cl)cnc23)[C@@H](C)C1` [Example 16, 4-({(3S)-4-[(6-chloropyrazolo[1,5-a]pyrimidin-3-yl)carbonyl]-3-methyl-1-piperazinyl}sulfonyl)-3-methylbenzonitrile], for which the IC50 was no less than 10 µM.
On the same count and under the same terms, with `Cc1cc(C)n2ncc(C(=O)N3CCN(S(=O)(=O)c4ccc(C(F)(F)F)cc4)CC3)c2n1` [Example 14, 5,7-dimethyl-3-[(4-{[4-(trifluoromethyl)phenyl]sulfonyl}-1-piperazinyl)carbonyl]pyrazolo[1,5-a] pyrimidine] the figure was no less than 31.6 µM; with `Cc1ccc(C(F)(F)F)cc1S(=O)(=O)N1CCN(C(=O)c2cnn3cccnc23)CC1` [Example 19, 3-[(4-{[2-methyl-5-(trifluoromethyl)phenyl]sulfonyl}-1-piperazinyl)carbonyl]pyrazolo[1,5-a] pyrimidine], no less than 31.6 µM; with `C[C@@H]1CN(C(=O)c2cnn3cccnc23)CCN1S(=O)(=O)c1ccc(C(F)(F)F)cc1` [Example 3, 3-[((3R)-3-Methyl-4-{[4-(trifluoromethyl)phenyl]sulfonyl}-1-piperazinyl)carbonyl]pyrazolo[1,5-a]pyrimidine], no less than 31.6 µM.
Same read-out and setting: the same measure for `C[C@H]1CN(C(=O)c2cnn3cccnc23)CCN1S(=O)(=O)c1ccc(OC(F)(F)F)cc1` [Example 15, 3-{[(3S)-3-methyl-4-({4-[(trifluoromethyl)oxy]phenyl}sulfonyl)-1-piperazinyl]carbonyl}pyrazolo[1,5-a] pyrimidine]: no less than 31.6 µM.
On the same count and under the same terms, the same measure for `C[C@@H]1CN(S(=O)(=O)c2ccc(OC(F)(F)F)cc2)CCN1C(=O)c1cnn2cccnc12` [Example 22, 3-{[(2R)-2-methyl-4-({4-[(trifluoromethyl)oxy]phenyl}sulfonyl)-1-piperazinyl]carbonyl}pyrazolo[1,5-a] pyrimidine]: no less than 31.6 µM; for `C[C@H]1CN(S(=O)(=O)c2ccc(C(F)(F)F)cc2)CCN1C(=O)c1cnn2cc(F)cnc12` [Example 9, 6-Fluoro-3-[((2S)-2-methyl-4-{[4-(trifluoromethyl)phenyl]sulfonyl}-1-piperazinyl)carbonyl]pyrazolo[1,5-a]pyrimidine]: no less than 10 µM.
With `O=C(c1cnn2cccnc12)N1CCN(S(=O)(=O)c2ccc(OC(F)(F)F)cc2)CC1` [Example 8, 3-{[4-({4-[(trifluoromethyl)oxy]phenyl}sulfonyl)-1-piperazinyl]carbonyl}pyrazolo[1,5-a]pyrimidine], the IC50 was no less than 31.6 µM.
As for `C[C@H]1CN(S(=O)(=O)c2ccc(OC(F)(F)F)cc2)CCN1C(=O)c1cnn2cccnc12` [Example 11, 3-{[(2S)-2-methyl-4-({4-[(trifluoromethyl)oxy]phenyl}sulfonyl)-1-piperazinyl]carbonyl}pyrazolo[1,5-a]pyrimidine], the IC50 was no less than 31.6 µM.

Staying with this test, now noted: mean pIC50 value (tonic pIC50), inhibition of current elicited by the 1st depolarizing pulse by 50%, HEK293 cells expressing human CaV2.2 α/β3/α2δ1.
For `Cc1cc(C#N)ccc1S(=O)(=O)N1CCN(C(=O)c2cnn3cc(F)cnc23)[C@@H](C)C1` [Example 10, 4-({(3S)-4-[(6-fluoropyrazolo[1,5-a]pyrimidin-3-yl)carbonyl]-3-methyl-1-piperazinyl}sulfonyl)-3-methylbenzonitrile], the IC50 was no less than 31.6 µM.
